Paper PMC6295861, “Privileged Structures and Polypharmacology within and between Protein Families” (ACS Medicinal Chemistry Letters, 2018)
Where “and” joins values, the source holds several entries; their conditions need not be identical. Equal entries are not always repeated. Each block holds one compound with its values, some of them ahead of it.

What was measured:
B-Raf (WT) = B-Raf (WT) (Homo sapiens, UniProt P15056); test: B-Raf Z'-LYTE cascade kinase assay (SelectScreen); assay type: biochemical; conditions: ATP 100 μM, points 1 and 2, listed as CCT363294-01
B-Raf (WT), sequence (P15056 whole entry): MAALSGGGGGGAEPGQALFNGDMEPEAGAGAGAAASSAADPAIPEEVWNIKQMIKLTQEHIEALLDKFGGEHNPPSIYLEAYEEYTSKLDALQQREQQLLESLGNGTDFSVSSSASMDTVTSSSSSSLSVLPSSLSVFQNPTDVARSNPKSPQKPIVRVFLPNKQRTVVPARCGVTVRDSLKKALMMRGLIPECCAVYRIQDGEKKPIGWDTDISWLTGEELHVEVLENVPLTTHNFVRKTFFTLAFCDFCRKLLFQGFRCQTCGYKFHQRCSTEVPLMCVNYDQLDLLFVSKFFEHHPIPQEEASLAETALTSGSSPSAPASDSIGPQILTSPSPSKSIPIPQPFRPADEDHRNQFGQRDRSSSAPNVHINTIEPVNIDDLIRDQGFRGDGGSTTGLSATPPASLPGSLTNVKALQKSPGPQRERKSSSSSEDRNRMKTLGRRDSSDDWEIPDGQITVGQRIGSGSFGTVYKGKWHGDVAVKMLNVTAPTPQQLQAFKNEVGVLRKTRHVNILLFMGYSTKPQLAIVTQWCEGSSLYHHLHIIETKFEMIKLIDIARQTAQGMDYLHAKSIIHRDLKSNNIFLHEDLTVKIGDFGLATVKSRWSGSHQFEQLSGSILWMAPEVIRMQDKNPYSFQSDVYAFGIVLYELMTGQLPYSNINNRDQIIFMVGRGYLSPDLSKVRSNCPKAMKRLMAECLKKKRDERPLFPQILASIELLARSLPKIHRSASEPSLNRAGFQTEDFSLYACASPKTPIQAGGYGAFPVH

TAOK1 = molecular target: T1, TAOK1 (Homo sapiens, UniProt Q7L7X3); test: Radio labeled filter binding kinase assay, TAOK1; assay type: biochemical; conditions: mean of duplicates
T1 sequence (Q7L7X3 1-1001): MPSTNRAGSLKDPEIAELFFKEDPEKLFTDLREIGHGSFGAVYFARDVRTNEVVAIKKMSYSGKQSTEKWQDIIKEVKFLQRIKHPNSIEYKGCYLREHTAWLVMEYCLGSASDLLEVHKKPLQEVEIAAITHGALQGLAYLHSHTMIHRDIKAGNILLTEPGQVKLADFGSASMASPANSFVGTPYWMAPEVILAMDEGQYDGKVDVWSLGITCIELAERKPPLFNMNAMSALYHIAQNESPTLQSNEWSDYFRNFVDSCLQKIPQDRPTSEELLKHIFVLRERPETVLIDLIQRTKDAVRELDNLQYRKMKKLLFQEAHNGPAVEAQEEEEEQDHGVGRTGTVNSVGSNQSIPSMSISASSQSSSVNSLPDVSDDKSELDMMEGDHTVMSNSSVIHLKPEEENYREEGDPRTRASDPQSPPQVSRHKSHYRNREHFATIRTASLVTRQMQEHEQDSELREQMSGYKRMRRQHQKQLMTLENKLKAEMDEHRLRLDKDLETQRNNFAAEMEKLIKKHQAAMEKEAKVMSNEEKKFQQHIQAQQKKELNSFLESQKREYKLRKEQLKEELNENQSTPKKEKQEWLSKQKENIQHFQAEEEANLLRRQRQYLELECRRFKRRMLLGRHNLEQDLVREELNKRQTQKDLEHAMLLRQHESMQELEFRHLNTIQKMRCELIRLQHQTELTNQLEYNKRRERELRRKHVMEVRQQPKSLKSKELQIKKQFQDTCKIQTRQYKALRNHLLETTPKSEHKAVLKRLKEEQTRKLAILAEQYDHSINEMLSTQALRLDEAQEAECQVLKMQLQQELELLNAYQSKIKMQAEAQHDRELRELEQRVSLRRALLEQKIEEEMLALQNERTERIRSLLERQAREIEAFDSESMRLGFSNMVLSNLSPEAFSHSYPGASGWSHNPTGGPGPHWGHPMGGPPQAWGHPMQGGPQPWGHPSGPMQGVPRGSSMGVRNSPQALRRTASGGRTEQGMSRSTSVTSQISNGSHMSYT

HIPK2 = HIPK2 (Homo sapiens, UniProt Q9H2X6); test: Radio labeled filter binding kinase assay, HIPK2; assay type: biochemical
HIPK2, sequence (Q9H2X6 whole entry): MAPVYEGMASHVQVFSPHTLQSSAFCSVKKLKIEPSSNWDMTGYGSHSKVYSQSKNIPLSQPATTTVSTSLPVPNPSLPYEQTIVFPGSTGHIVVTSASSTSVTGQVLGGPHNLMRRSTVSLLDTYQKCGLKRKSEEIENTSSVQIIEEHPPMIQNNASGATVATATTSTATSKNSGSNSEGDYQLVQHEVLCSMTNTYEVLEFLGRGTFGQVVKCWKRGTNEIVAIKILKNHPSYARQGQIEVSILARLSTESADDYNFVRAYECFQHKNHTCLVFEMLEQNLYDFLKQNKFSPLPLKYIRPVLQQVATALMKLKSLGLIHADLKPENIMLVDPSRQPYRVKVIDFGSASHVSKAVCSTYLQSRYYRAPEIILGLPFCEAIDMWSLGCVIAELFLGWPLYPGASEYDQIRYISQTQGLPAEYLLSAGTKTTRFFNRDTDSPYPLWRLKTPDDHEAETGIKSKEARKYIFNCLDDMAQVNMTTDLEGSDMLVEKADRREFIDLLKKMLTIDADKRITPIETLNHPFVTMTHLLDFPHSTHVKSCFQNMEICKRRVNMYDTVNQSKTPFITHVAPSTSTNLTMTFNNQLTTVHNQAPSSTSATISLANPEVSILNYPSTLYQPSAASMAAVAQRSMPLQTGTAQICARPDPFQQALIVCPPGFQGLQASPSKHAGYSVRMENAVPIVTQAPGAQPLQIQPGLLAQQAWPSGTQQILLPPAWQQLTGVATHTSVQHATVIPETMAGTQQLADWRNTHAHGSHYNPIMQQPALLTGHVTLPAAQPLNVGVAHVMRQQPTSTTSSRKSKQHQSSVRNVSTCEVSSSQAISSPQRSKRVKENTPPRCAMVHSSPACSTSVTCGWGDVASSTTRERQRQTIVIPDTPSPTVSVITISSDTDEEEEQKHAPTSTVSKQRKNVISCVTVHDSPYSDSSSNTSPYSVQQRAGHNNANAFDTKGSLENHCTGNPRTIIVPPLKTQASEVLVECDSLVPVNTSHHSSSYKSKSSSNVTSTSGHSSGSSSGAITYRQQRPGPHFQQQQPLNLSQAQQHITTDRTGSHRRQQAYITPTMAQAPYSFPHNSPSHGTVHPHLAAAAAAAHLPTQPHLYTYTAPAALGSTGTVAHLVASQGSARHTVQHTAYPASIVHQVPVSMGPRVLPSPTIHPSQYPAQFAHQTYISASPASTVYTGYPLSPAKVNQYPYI

[1] = molecular target: cyclin-dependent kinase 9 (CDK9); parameters: method as in PMID 27746890; conditions: cited from earlier work

% Inhibition BRAF (B-Raf (WT); 1.52 nM compound): -10% and -14%
% Inhibition BRAF (B-Raf (WT); 13.7 nM compound): -17% and -16%
% Inhibition BRAF (B-Raf (WT); 41.2 nM compound): -36% and -33%
% Inhibition BRAF (B-Raf (WT); 123 nM compound): -22% and -28%
% Inhibition BRAF (B-Raf (WT); 1110 nM compound): -4% and -8%
% Inhibition BRAF (B-Raf (WT); 3330 nM compound): 6% and -3%
Structure (SMILES): CC(C)(C)N1CCN(Cc2ccc3cc(C(=O)Nc4cc(NC(=O)c5ccc6c(c5)OCCO6)ccc4Cl)ccc3n2)CC1 [Compd 8, 2-((4-(tert-butyl)piperazin-1-yl)methyl)-N-(2-chloro-5-(2,3-dihydrobenzo[b][1,4]dioxine-6-carboxamido)phenyl)quinoline-6-carboxamide]

activity at 0.0003 µM (TAOK1; 0.0003 µM compound): 108%
activity at 0.001 µM (TAOK1; 0.001 µM compound): 95%
activity at 0.003 µM (TAOK1; 0.003 µM compound): 111%
activity at 0.01 µM (TAOK1; 0.01 µM compound): 116%
activity at 0.03 µM (TAOK1; 0.03 µM compound): 109%
activity at 0.1 µM (TAOK1; 0.1 µM compound): 82%
activity at 0.3 µM (TAOK1; 0.3 µM compound): 69%
activity at 1 µM (TAOK1; 1 µM compound): 46%
activity at 3 µM (TAOK1; 3 µM compound): 20%
activity at 10 µM (TAOK1; 10 µM compound): 11%
activity at 0.0003 µM (HIPK2; 0.0003 µM compound, duplicates): 99%
HIPK2 % activity (HIPK2; 0.0003 µM compound, duplicates, listed as CCT250006, 0.0003 µM): 95%
activity at 0.001 µM (HIPK2; 0.001 µM compound, duplicates): 94%
HIPK2 % activity (HIPK2; 0.001 µM compound, duplicates, listed as CCT250006, 0.001 µM): 107%
HIPK2 % activity (HIPK2; 0.003 µM compound, duplicates, listed as CCT250006, 0.003 µM): 95% and 121%
activity at 0.01 µM (HIPK2; 0.01 µM compound, duplicates): 86%
HIPK2 % activity (HIPK2; 0.01 µM compound, duplicates, listed as CCT250006, 0.01 µM): 88%
activity at 0.03 µM (HIPK2; 0.03 µM compound, duplicates): 43%
HIPK2 % activity (HIPK2; 0.03 µM compound, duplicates, listed as CCT250006, 0.03 µM): 39%
activity at 0.1 µM (HIPK2; 0.1 µM compound, duplicates): 26%
HIPK2 % activity (HIPK2; 0.1 µM compound, duplicates, listed as CCT250006, 0.1 µM): 35%
activity at 0.3 µM (HIPK2; 0.3 µM compound, duplicates): 9%
HIPK2 % activity (HIPK2; 0.3 µM compound, duplicates, listed as CCT250006, 0.3 µM): 11%
activity at 1 µM (HIPK2; 1 µM compound, duplicates): 6%
HIPK2 % activity (HIPK2; 1 µM compound, duplicates, listed as CCT250006, 1 µM): 5%
HIPK2 % activity (HIPK2; 3 µM compound, duplicates, listed as CCT250006, 3 µM): 1% and 4%
HIPK2 % activity (HIPK2; 10 µM compound, duplicates, listed as CCT250006, 10 µM): 1% and 5%
IC50 (HIPK2; SI Table S5, unit inferred, one per duplicate curve, read-out: HIPK2 IC50, fitted values above the IC50(µM) line): 0.0272 µM
Structure (SMILES): c1cnc2ncn(-c3cc(Nc4ccc(OCCN5CCCCC5)cn4)ncn3)c2c1 [Compd 1]
IC50 [1]: ≤ 3 nM
